According to patent US7659270B2, “Hepatitis C virus inhibitors” (Bristol-Myers Squibb Company, priority 2006, dated 2010):

System: HCV 1b-377-neo replicon cells
Test: HCV replicon assay (HCV 1b-377-neo replicon cells)
Format: cell-based, Hepatitis C virus genotype 1b
Details: Hepatitis C virus, read-out: EC50 range against HCV 1b (Range)
Protocol: An HCV Replion assay was utilized in the present disclosure, and was prepared, conducted and validated as described in commonly owned PCT/US2006/022197 and in O'Boyle et. al. Antimicrob Agents Chemother. April 2005;49(4): 1346-53.
HCV 1b-377-neo replicon cells were used to test the currently described compound series as well as cells resistant to compound A due to a Y2065H mutation in NS5A (described in application PCT/US2006/022197). The compounds tested were determined to have more than 10-fold less inhibitory activity on cells resistant to compound A than wild-type cells indicating a related mechanism of action between the two compound series. Thus, the compounds of the present disclosure can be effective to inhibit the function of the HCV NS5A protein and are understood to be as effective in combinations as previously described in application PCT/US2006/022197 and commonly owned WO/04014852. Further, the compounds of the present disclosure can be effective against the HCV 1b genotype. It should also be understood that the compounds of the present disclosure can inhibit multiple genotypes of HCV. […] In one embodiment compounds of the present disclosure are active against the 1a, 1b, 2a, 2b, 3a, 4a, and 5a genotypes.

`COC(=O)N[C@@H](C(=O)N1CCC[C@H]1c1ncc(-c2ccc(-c3ncc(-c4cnc([C@@H]5CCCN5C(=O)[C@H](NC(=O)OC)c5ccccc5)[nH]4)cn3)cc2)[nH]1)c1ccccc1` [Example 152j-2, methyl ((1R)-2-((2S)-2-(5-(2-(4-(2-((2S)-1-((2R)-2-((methoxycarbonyl)a-mino)-2-phenylacetyl)-2-pyrrolidinyl)-1H-imidazol-5-yl)phenyl)-5-pyrimidinyl)-1H-imidazol-2-yl)-1-pyrrolidinyl)-2-oxo-1-phenylethyl)carba-mate] and `COC(=O)N[C@@H](C(=O)N1CCC[C@H]1c1ncc(-c2ccc(-c3cnc(-c4cnc([C@@H]5CCCN5C(=O)[C@H](NC(=O)OC)c5ccccc5)[nH]4)cn3)cc2)[nH]1)c1ccccc1` [Example 152j-8, methyl ((1R)-2-((2S)-2-(5-(5-(4-(2-((2S)-1-((2R)-2-((methoxycarbonyl)a-mino)-2-phenylacetyl)-2-pyrrolidinyl)-1H-imidazol-5-yl)phenyl)-2-pyrazinyl)-1H-imidazol-2-yl)-1-pyrrolidinyl)-2-oxo-1-phenylethyl)carbamate] fall in the same range of EC50: 10 to 999 pM for the first, 10 to 999 pM for the second.

First: COC(=O)N[C@@H](C(=O)N1CCC[C@H]1c1ncc(-c2ccc(-c3ncc(-c4cnc([C@@H]5CCCN5C(=O)Cc5cccnc5)[nH]4)cn3)cc2)[nH]1)c1ccccc1 [Example 152j-3, methyl ((1R)-2-oxo-1-phenyl-2-((2S)-2-(5-(4-(5-(2-((2S)-1-(3-pyridinylacetyl)-2-pyrrolidinyl)-1H-imidazol-5-yl)-2-pyrimidinyl)phenyl)-1H-imidazol-2-yl)-1-pyrrolidinyl)ethyl)car-bamate]
Second: COC(=O)N[C@@H](C(=O)N1CCC[C@H]1c1ncc(-c2ccc(-c3ccc(-c4cnc([C@@H]5CCCN5C(=O)[C@H](NC(=O)OC)c5ccccc5)[nH]4)nn3)cc2)[nH]1)c1ccccc1 [Example 152j-10, methyl ((1R)-2-((2S)-2-(5-(6-(4-(2-((2S)-1-((2R)-2-((methoxycarbonyl)a-mino)-2-phenylacetyl)-2-pyrrolidinyl)-1H-imidazol-5-yl)phenyl)-3-pyridazinyl)-1H-imidazol-2-yl)-1-pyrrolidinyl)-2-oxo-1-phenylethyl) carba-mate]
The EC50 of the first is lower: 10 to 999 pM for the first, 1000 to 99000 pM for the second. The first is the more potent here.

`O=C([C@@H](c1ccccc1)N1CCCCC1)N1CCC[C@H]1c1ncc(-c2ccc(-c3ncc(-c4cnc([C@@H]5CCCN5C(=O)[C@@H](c5ccccc5)N5CCCCC5)[nH]4)cn3)cc2)[nH]1` [Example 152j-5, 5-(2-((2S)-1-((2R)-2-phenyl-2-(1-piperidinyl)acetyl)-2-pyrrolidinyl)-1H-imidazol-5-yl)-2-(4-(2-((2S)-1-((2R)-2-phenyl-2-(1-piperidinyl)acetyl)-2-pyrrolidinyl)-1H-imidazol-4-yl)phenyl)pyrimidine] and `C[C@@H](c1ncc(-c2ccc(-c3ncc(-c4cnc([C@@H]5CCCN5C(=O)[C@@H](c5ccccc5)N5CCCCC5)[nH]4)cn3)cc2)[nH]1)N(C)C(=O)[C@@H](c1ccccc1)N1CCCCC1` [Example 152j-6, (2R)-N-methyl-2-phenyl-N-((1S)-1-(4-(4-(5-(2-((2S)-1-((2R)-2-phenyl-2-(1-piperidinyl)acetyl)-2-pyrrolidinyl)-1H-imidazol-5-yl)-2-pyrimidinyl)phenyl)-1H-imidazol-2-yl)ethyl)-2-(1-piperidinyl)acetamide] fall in the same range of EC50: 10 to 999 pM for the first, 10 to 999 pM for the second.

`CN(C)[C@@H](C(=O)N1CCC[C@H]1c1ncc(-c2ccc(-c3cnc(-c4cnc([C@@H]5CCCN5C(=O)[C@@H](c5ccccc5)N(C)C)[nH]4)cn3)cc2)[nH]1)c1ccccc1` [Example 152j-7, (1R)-2-((2S)-2-(5-(5-(4-(2-((2S)-1-((2R)-2-(dimethylamino)-2-phenylacetyl)-2-pyrrolidinyl)-1H-imidazol-5-yl)phenyl)-2-pyrazinyl)-1H-imidazol-2-yl)-1-pyrrolidinyl)-N,N-dimethyl-2-oxo-1-phenylethanamine] and `CN(C)[C@@H](C(=O)N1CCC[C@H]1c1ncc(-c2ccc(-c3ccc(-c4cnc([C@@H]5CCCN5C(=O)[C@@H](c5ccccc5)N(C)C)[nH]4)nn3)cc2)[nH]1)c1ccccc1` [Example 152j-9, (1R)-2-((2S)-2-(5-(6-(4-(2-((2S)-1-((2R)-2-(dimethylamino)-2-phenylacetyl)-2-pyrrolidinyl)-1H-imidazol-5-yl)phenyl)-3-pyridazinyl)-1H-imidazol-2-yl)-1-pyrrolidinyl)-N,N-dimethyl-2-oxo-1-phenylethanamine] fall in the same range of EC50: 1000 to 99000 pM for the first, 1000 to 99000 pM for the second.

Compared with `C[C@H](NC(=O)[C@@H](c1ccccc1)N(C)C)c1ncc(-c2ccc(-c3ccc(-c4cnc([C@@H]5CCCN5C(=O)[C@@H](c5ccccc5)N(C)C)[nH]4)cn3)cc2)[nH]1` [Example 152j-11, (2R)-2-(dimethylamino)-N-((1S)-1-(5-(4-(5-(2-((2S)-1-((2R)-2-(dimethylamino)-2-phenylacetyl)-2-pyrrolidinyl)-1H-imidazol-5-yl)-2-pyridinyl)phenyl)-1H-imidazol-2-yl)ethyl)-2-phenylacetamide], `C[C@H](NC(=O)[C@@H](c1ccccc1)N(C)C)c1ncc(-c2ccc(-c3ccc(-c4cnc([C@@H]5CCCN5C(=O)[C@@H](c5ccccc5)N(C)C)[nH]4)nn3)cc2)[nH]1` [Example 152j-13, (2R)-2-(dimethylamino)-N-((1S)-1-(5-(4-(6-(2-((2S)-1-((2R)-2-(dimethylamino)-2-phenylacetyl)-2-pyrrolidinyl)-1H-imidazol-5-yl)-3-pyridazinyl)phenyl)-1H-imidazol-2-yl)ethyl)-2-phenylacetamide] is higher in EC50: 10 to 999 pM for the first, 1000 to 99000 pM for the second. The first is the more potent here.

First: COC(=O)N[C@@H](C(=O)N[C@@H](C)c1ncc(-c2ccc(-c3ccc(-c4cnc([C@@H]5CCCN5C(=O)[C@H](NC(=O)OC)c5ccccc5)[nH]4)cn3)cc2)[nH]1)c1ccccc1 [Example 152j-12, methyl ((1R)-2-((2S)-2-(5-(6-(4-(2-((1S)-1-(((2R)-2-((methoxycarbonyl)a-mino)-2-phenyl-acetyl)amino)eth-yl)-1H-imidazol-5-yl)phenyl)-3-pyridinyl)-1H-imidazol-2-yl)-1-pyrrolidinyl)-2-oxo-1-phenylethyl)carbamate]
Second: COC(=O)N[C@@H](C(=O)N[C@@H](C)c1ncc(-c2ccc(-c3ccc(-c4cnc([C@@H]5CCCN5C(=O)[C@H](NC(=O)OC)c5ccccc5)[nH]4)nn3)cc2)[nH]1)c1ccccc1 [Example 152j-14, methyl ((1R)-2-((2S)-2-(5-(6-(4-(2-((1S)-1-(((2R)-2-((methoxycarbonyl)a-mino)-2-phenyl-acetyl)amino)eth-yl)-1H-imidazol-5-yl)phenyl)-3-pyridazinyl)-1H-imidazol-2-yl)-1-pyrrolidinyl)-2-oxo-1-phenylethyl)carbamate]
The EC50 of the first is lower: 10 to 999 pM for the first, 1000 to 99000 pM for the second.

`COC(=O)N[C@@H](C(=O)N[C@@H](C)c1ncc(-c2ccc(-c3ncc(-c4cnc([C@@H]5CCCN5C(=O)[C@H](NC(=O)OC)c5ccccc5)[nH]4)cn3)cc2)[nH]1)c1ccccc1` [Example 152j-15, methyl ((1R)-2-((2S)-2-(5-(2-(4-(2-((1S)-1-(((2R)-2-((methoxycarbonyl)a-mino)-2-phenyl-acetyl)amino)eth-yl)-1H-imidazol-5-yl)phenyl)-5-pyrimidinyl)-1H-imidazol-2-yl)-1-pyrrolidinyl)-2-oxo-1-phenylethyl)carbamate] and `COC(=O)N[C@@H](C(=O)N[C@@H](C)c1ncc(-c2cnc(-c3ccc(-c4cnc([C@@H]5CCCN5C(=O)[C@H](NC(=O)OC)c5ccccc5)[nH]4)cc3)nc2)[nH]1)c1ccccc1` [Example 152j-17, methyl ((1R)-2-((2S)-2-(5-(4-(5-(2-((1S)-1-(((2R)-2-((methoxycarbonyl)a-mino)-2-phenyl-acetyl)amino)eth-yl)-1H-imidazol-5-yl)-2-pyrimidinyl)phenyl)-1H-imidazol-2-yl)-1-pyrrolidinyl)-2-oxo-1-phenylethyl)carba-mate] fall in the same range of EC50: 10 to 999 pM for the first, 10 to 999 pM for the second.

`C[C@H](NC(=O)[C@@H](c1ccccc1)N(C)C)c1ncc(-c2cnc(-c3ccc(-c4cnc([C@@H]5CCCN5C(=O)[C@@H](c5ccccc5)N(C)C)[nH]4)cc3)nc2)[nH]1` [Example 152j-16, (2R)-2-(dimethylamino)-N-((1S)-1-(5-(2-(4-(2-((2S)-1-((2R)-2-(dimethylamino)-2-phenylacetyl)-2-pyrrolidinyl)-1H-imidazol-5-yl)phenyl)-5-pyrimidinyl)-1H-imidazol-2-yl)ethyl)-2-phenylacetamide] and `C[C@H](NC(=O)[C@@H](c1ccccc1)N(C)C)c1ncc(-c2cnc(-c3ccc(-c4cnc([C@@H]5CCCN5C(=O)[C@@H](c5ccccc5)N(C)C)[nH]4)cc3)cn2)[nH]1` [Example 152j-18, (2R)-2-(dimethylamino)-N-((1S)-1-(5-(5-(4-(2-((2S)-1-((2R)-2-(dimethylamino)-2-phenylacetyl)-2-pyrrolidinyl)-1H-imidazol-5-yl)phenyl)-2-pyrazinyl)-1H-imidazol-2-yl)ethyl)-2-phenylacetamide] fall in the same range of EC50: 10 to 999 pM for the first, 10 to 999 pM for the second.

`COC(=O)N[C@@H](C(=O)N[C@@H](C)c1ncc(-c2cnc(-c3ccc(-c4cnc([C@@H]5CCCN5C(=O)[C@H](NC(=O)OC)c5ccccc5)[nH]4)cc3)cn2)[nH]1)c1ccccc1` [Example 152j-19, methyl ((1R)-2-((2S)-2-(5-(4-(5-(2-((1S)-1-(((2R)-2-((methoxycarbonyl)a-mino)-2-phenyl-acetyl)amino)eth-yl)-1H-imidazol-5-yl)-2-pyrazinyl)phenyl)-1H-imidazol-2-yl)-1-pyrrolidinyl)-2-oxo-1-phenylethyl)carbamate] showed an EC50 of 10 to 999 pM.
